Data: ChEMBL document CHEMBL5247634, “Design, synthesis and anticancer evaluation of selective 2,4-disubstituted pyrimidine CDK9 inhibitors” (Eur J Med Chem, 2022)
One block for each compound: values may come before it. Calls of active or inactive are those of the source. The calls are words filed in the database; no cut-off is given here.

Experiments:
[1] = test system: A549; experiment: Antiproliferative activity against human A549 cells assessed as cell growth inhibition measured after 72 hrs by MTT assay; type: functional, cell-based; settings: A549, 72 h
[2] = test system: L02; experiment: Antiproliferative activity against human L02 cells assessed as cell growth inhibition measured after 72 hrs by MTT assay; type: functional, cell-based; settings: L02, 72 h
[3] = test system: HCT-116; experiment: Antiproliferative activity against human HCT-116 cells assessed as cell growth inhibition measured after 72 hrs by MTT assay; type: functional, cell-based; settings: HCT-116, 72 h
[4] = test system: PANC-1; experiment: Antiproliferative activity against human PANC-1 cells assessed as cell growth inhibition measured after 72 hrs by MTT assay; type: functional, cell-based; settings: PANC-1, 72 h
[5] = test system: NCI-H1975; experiment: Antiproliferative activity against human NCI-H1975 cells assessed as cell growth inhibition measured after 72 hrs by MTT assay; type: functional, cell-based; settings: NCI-H1975, 72 h
[6] = test system: A-431; experiment: Antiproliferative activity against human A-431 cells assessed as cell growth inhibition measured after 72 hrs by MTT assay; type: functional, cell-based; settings: A-431, 72 h
[7] = species: Homo sapiens; experiment: Selectivity index, ratio of IC50 for CDK2/cyclin A (unknown origin) to IC50 for CDK9/cyclin T1 (unknown origin)
[8] = target: Cyclin-dependent kinase 2/cyclin A (Homo sapiens, UniProt P24941); experiment: Inhibition of CDK2/cyclin A (unknown origin) incubated for 1 hr in presence of ATP by ADP-glo luminescent assay; type: protein-complex assay
[9] = target: CDK9/cyclin T1 (Homo sapiens, UniProt P50750); experiment: Inhibition of CDK9/cyclin T1 (unknown origin) using as PDKtide substrate incubated for 1 hr in presence of ATP by ADP-glo luminescent assay; type: protein-complex assay
Chain of CDK9/cyclin T1 (O60563 whole entry): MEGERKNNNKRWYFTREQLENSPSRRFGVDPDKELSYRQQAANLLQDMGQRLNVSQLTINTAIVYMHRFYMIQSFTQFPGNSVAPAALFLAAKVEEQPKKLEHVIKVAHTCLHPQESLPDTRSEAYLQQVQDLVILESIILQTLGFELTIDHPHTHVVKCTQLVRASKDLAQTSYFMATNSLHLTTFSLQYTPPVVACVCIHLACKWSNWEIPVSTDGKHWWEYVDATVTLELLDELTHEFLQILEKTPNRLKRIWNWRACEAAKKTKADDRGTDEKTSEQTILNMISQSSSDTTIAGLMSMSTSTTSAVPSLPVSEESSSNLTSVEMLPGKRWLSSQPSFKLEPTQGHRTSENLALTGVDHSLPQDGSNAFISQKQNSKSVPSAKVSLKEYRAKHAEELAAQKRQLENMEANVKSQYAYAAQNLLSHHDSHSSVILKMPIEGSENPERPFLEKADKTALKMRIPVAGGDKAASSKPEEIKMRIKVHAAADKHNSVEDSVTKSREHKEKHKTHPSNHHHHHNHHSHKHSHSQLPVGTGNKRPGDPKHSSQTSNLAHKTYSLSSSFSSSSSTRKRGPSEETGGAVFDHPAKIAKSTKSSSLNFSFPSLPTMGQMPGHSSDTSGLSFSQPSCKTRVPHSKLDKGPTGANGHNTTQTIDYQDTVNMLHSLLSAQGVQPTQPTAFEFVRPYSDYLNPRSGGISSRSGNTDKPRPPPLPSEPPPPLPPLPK
Chain of CDK9/cyclin T1 (P50750 whole entry): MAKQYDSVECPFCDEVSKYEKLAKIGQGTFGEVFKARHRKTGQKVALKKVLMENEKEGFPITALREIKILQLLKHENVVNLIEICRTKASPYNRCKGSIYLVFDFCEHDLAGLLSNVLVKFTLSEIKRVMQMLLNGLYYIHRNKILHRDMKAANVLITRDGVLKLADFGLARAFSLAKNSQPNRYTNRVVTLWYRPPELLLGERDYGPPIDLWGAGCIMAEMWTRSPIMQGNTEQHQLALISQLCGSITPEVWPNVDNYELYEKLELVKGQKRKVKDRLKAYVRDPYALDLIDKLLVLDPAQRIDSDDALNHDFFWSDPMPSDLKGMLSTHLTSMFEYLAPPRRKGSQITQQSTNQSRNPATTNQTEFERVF

[10] = target: Cyclin-dependent kinase 2 (Homo sapiens, UniProt P24941)
Description: Inhibition of CDK2 (unknown origin)

[11] = test system: PANC-1; experiment: Induction of apoptosis in human PANC-1 cells assessed as viable cells at 2.5 uM incubated for 48 hrs by Annexin-V-FITC/PI staining based flow cytometric analysis (reference value: 97.0%); type: functional; settings: read-out: Activity
[12] = test system: PANC-1; experiment: Antitumor activity against human PANC-1 cells xenografted in BALB/c nude mouse assessed as reduction in tumor growth rate at […], ip administered for every other day for 4 weeks relative to control; type: functional; parameters: scale not given: the % may be the effect or the level left
[13] = test system: PANC-1; experiment: Induction of apoptosis in human PANC-1 cells assessed as early apoptotic cells at 0.1 uM incubated for 48 hrs by Annexin-V-FITC/PI staining based flow cytometric analysis (reference value: 2.21%); type: functional
[14] = test system: PANC-1; experiment: Induction of cell cycle arrest in human PANC-1 cells assessed as accumulation at G2M phase at 2.5 uM incubated for 24 hrs by propidium iodide staining based flow cytometric analysis (reference value: 2.16%); type: functional
[15] = test system: PANC-1; experiment: Inhibition of CDK9 expression in human PANC-1 cells incubated for 24 hrs by Western blot analysis; type: functional, cell-based; settings: dose 0.1-2.5 µM
[16] = Toxicity in BALB/c nude mouse xenografted with human PANC-1 cells assessed as no tissue lesions and necrosis at 5 to 20 mg/kg, ip administered for every other day for 4 weeks; type: organism-based; settings: in vivo, 672 h, dose 5-20 mg/kg
[17] = Downregulation of RNAPII phosphorylation level in human PANC-1 cells at 2.5 uM incubated for 24 hrs by Western blot analysis; type: functional
[18] = test system: PANC-1; experiment: Induction of apoptosis in human PANC-1 cells assessed as necrotic cells at 2.5 uM incubated for 48 hrs by Annexin-V-FITC/PI staining based flow cytometric analysis (reference value: 0.59%); type: functional
[19] = test system: PANC-1; experiment: Induction of apoptosis in human PANC-1 cells assessed as necrotic cells at 0.5 uM incubated for 48 hrs by Annexin-V-FITC/PI staining based flow cytometric analysis (reference value: 0.59%); type: functional
[20] = test system: PANC-1; experiment: Induction of cell cycle arrest in human PANC-1 cells assessed as accumulation at G1 phase at 2.5 uM incubated for 24 hrs by propidium iodide staining based flow cytometric analysis (reference value: 80.36%); type: functional
[21] = test system: PANC-1; experiment: Induction of apoptosis in human PANC-1 cells assessed as early apoptotic cells at 0.5 uM incubated for 48 hrs by Annexin-V-FITC/PI staining based flow cytometric analysis (reference value: 2.21%); type: functional
[22] = test system: PANC-1; experiment: Induction of cell cycle arrest in human PANC-1 cells assessed as accumulation at S phase at 2.5 uM incubated for 24 hrs by propidium iodide staining based flow cytometric analysis (reference value: 17.48%); type: functional
[23] = test system: PANC-1; experiment: Induction of cell cycle arrest in human PANC-1 cells assessed as accumulation at G1 phase at 0.5 uM incubated for 24 hrs by propidium iodide staining based flow cytometric analysis (reference value: 80.36%); type: functional
[24] = test system: PANC-1; experiment: Antitumor activity against human PANC-1 cells xenografted in BALB/c nude mouse assessed as reduction in tumor growth rate at 10 mg/kg, ip administered for every other day for 4 weeks relative to control; type: functional; parameters: scale not given: the % may be the effect or the level left
[25] = test system: PANC-1; experiment: Downregulation of RNAPII phosphorylation level in human PANC-1 cells at 0.5 uM incubated for 24 hrs by Western blot analysis; type: functional, cell-based
[26] = test system: PANC-1; experiment: Induction of apoptosis in human PANC-1 cells assessed as early apoptotic cells at 2.5 uM incubated for 48 hrs by Annexin-V-FITC/PI staining based flow cytometric analysis (reference value: 2.21%); type: functional
[27] = test system: PANC-1; experiment: Induction of cell cycle arrest in human PANC-1 cells assessed as accumulation at G1 phase at 0.1 uM incubated for 24 hrs by propidium iodide staining based flow cytometric analysis (reference value: 80.36%); type: functional
[28] = test system: PANC-1; experiment: Induction of cell cycle arrest in human PANC-1 cells assessed as accumulation at S phase at 0.5 uM incubated for 24 hrs by propidium iodide staining based flow cytometric analysis (reference value: 17.48%); type: functional
[29] = Toxicity in BALB/c nude mouse assessed as no obvious change in body weight at 5 to 20 mg/kg, ip administered for every other day for 4 weeks; type: organism-based; settings: in vivo, 672 h, dose 5-20 mg/kg
[30] = test system: PANC-1; experiment: Induction of apoptosis in human PANC-1 cells assessed as viable cells at 0.5 uM incubated for 48 hrs by Annexin-V-FITC/PI staining based flow cytometric analysis (reference value: 97.0%); type: functional; settings: read-out: Activity
[31] = test system: PANC-1; experiment: Induction of apoptosis in human PANC-1 cells assessed as necrotic cells at 0.1 uM incubated for 48 hrs by Annexin-V-FITC/PI staining based flow cytometric analysis (reference value: 0.59%); type: functional
[32] = test system: PANC-1; experiment: Induction of cell cycle arrest in human PANC-1 cells assessed as accumulation at S phase at 0.1 uM incubated for 24 hrs by propidium iodide staining based flow cytometric analysis (reference value: 17.48%); type: functional
[33] = test system: PANC-1; experiment: Antitumor activity against human PANC-1 cells xenografted in BALB/c nude mouse assessed as reduction in tumor growth rate at 20 mg/kg, ip administered for every other day for 4 weeks relative to control; type: functional; parameters: scale not given: the % may be the effect or the level left
[34] = test system: PANC-1; experiment: Induction of cell cycle arrest in human PANC-1 cells assessed as accumulation at G2M phase at 0.5 uM incubated for 24 hrs by propidium iodide staining based flow cytometric analysis (reference value: 2.16%); type: functional
[35] = test system: PANC-1; experiment: Induction of apoptosis in human PANC-1 cells assessed as late apoptotic cells at 0.1 uM incubated for 48 hrs by Annexin-V-FITC/PI staining based flow cytometric analysis (reference value: 0.22%); type: functional
[36] = test system: PANC-1; experiment: Induction of apoptosis in human PANC-1 cells assessed as late apoptotic cells at 0.5 uM incubated for 48 hrs by Annexin-V-FITC/PI staining based flow cytometric analysis (reference value: 0.22%); type: functional
[37] = Toxicity in BALB/c nude mouse xenografted with human PANC-1 cells assessed as mortality at 5 to 20 mg/kg, ip administered for every other day for 4 weeks; type: organism-based; settings: in vivo, 672 h, dose 5-20 mg/kg
[38] = test system: PANC-1; experiment: Induction of apoptosis in human PANC-1 cells assessed as viable cells at 0.1 uM incubated for 48 hrs by Annexin-V-FITC/PI staining based flow cytometric analysis (reference value: 97.0%); type: functional; settings: read-out: Activity
[39] = test system: PANC-1; experiment: Induction of cell cycle arrest in human PANC-1 cells assessed as accumulation at G2M phase at 0.1 uM incubated for 24 hrs by propidium iodide staining based flow cytometric analysis (reference value: 2.16%); type: functional
[40] = test system: PANC-1; experiment: Induction of apoptosis in human PANC-1 cells assessed as late apoptotic cells at 2.5 uM incubated for 48 hrs by Annexin-V-FITC/PI staining based flow cytometric analysis (reference value: 0.22%); type: functional

SMILES: CNCCNC(=O)c1ccc(Nc2nccc(-c3ccc(F)cc3OC)n2)cc1
- IC50 [1]: 10.1 µM
- IC50 [2]: 22.7 µM
- IC50 [3]: 16.3 µM
- IC50 [4]: 9.41 µM
- IC50 [5]: 9.61 µM
- IC50 [6]: 6.7 µM

SMILES: O=C(NCCN1CCOCC1)c1ccc(Nc2nccc(-c3ccc(F)cc3OCc3ccccc3)n2)cc1
- IC50 [2]: 18.9 µM
- IC50 [3]: 18 µM
- IC50 [4]: 16.5 µM
- IC50 [5]: 10.6 µM
- IC50 [6]: 16.6 µM

SMILES: COc1ccccc1-c1cc(Nc2cccc(CS(N)(=O)=O)c2)ncn1
- IC50 [10]: > 2000 nM

SMILES: CN(C)CCNC(=O)c1ccc(Nc2nccc(-c3ccc(F)cc3OCc3ccccc3)n2)cc1
- viability at 2.5 µM [11]: 29.8%
- Activity [12]: 6.2%
- Activity [13]: 23.7%
- Activity [14]: 34.26%
- inhibition [15]: Dose-Dependent Effect
- Activity [16]: Non-Toxic
- inhibition at 2.5 µM [17]: 100%
- IC50 [1]: 0.66 µM
- Activity [18]: 4.35%
- Activity [19]: 5.78%
- Activity [20]: 46.01%
- Activity [21]: 8.41%
- Selectivity Index [7]: 84.3
- Activity [22]: 19.73%
- IC50 [2]: 1.43 µM
- Activity [23]: 53.9%
- Activity [24]: 32.6%
- IC50 [8]: 876 nM
- Activity [25]: Active
- Activity [26]: 8.44%
- Activity [27]: 55.25%
- IC50 [9]: 10.4 nM
- Activity [28]: 20.25%
- Activity [29]: Non-Toxic
- viability at 0.5 µM [30]: 40.1%
- Activity [31]: 4.07%
- Activity [32]: 22.92%
- Activity [33]: 54.2%
- Activity [34]: 25.85%
- IC50 [3]: 0.09 µM
- IC50 [4]: 0.08 µM
- IC50 [5]: 0.43 µM
- Activity [35]: 19.9%
- Activity [36]: 45.7%
- Activity [37]: Non-Toxic
- viability at 0.1 µM [38]: 52.4%
- Activity [39]: 21.83%
- Activity [40]: 57.4%
- IC50 [6]: 0.1 µM

SMILES: CC(C)c1c2cc(-c3ccnc(N[C@H]4CC[C@H](NC5CCOCC5)CC4)n3)ccc2nn1C
- IC50 [10]: 400 nM

Second part, led by results:

- IC50 [1]: 2.38 µM
- IC50 [3]: 5.56 µM
- IC50 [4]: 2.48 µM
- IC50 [5]: 1.21 µM
- IC50 [6]: 1.05 µM
SMILES: CN1CCN(C(=O)c2ccc(Nc3nccc(-c4ccc(F)cc4OCc4ccccc4)n3)cc2)CC1
- IC50 [2]: 5.28 µM

- IC50 [1]: 4.67 µM
- IC50 [3]: 12.5 µM
- IC50 [4]: 4.58 µM
- IC50 [5]: 2.17 µM
- IC50 [6]: 3.69 µM
SMILES: COc1cc(F)ccc1-c1ccnc(Nc2ccc(C(=O)NCCN(C)C)cc2)n1
- IC50 [2]: 20.6 µM

- Selectivity Index [7]: 7.4
- IC50 [8]: 636 nM
- IC50 [9]: 86.2 nM
- IC50 [3]: 9.69 µM
- IC50 [4]: 12.7 µM
- IC50 [5]: 8.35 µM
- IC50 [6]: 7.28 µM
SMILES: O=C(O)c1ccc(Nc2nccc(-c3ccc(F)cc3OCc3ccccc3)n2)cc1
- IC50 [2]: 22.2 µM

- IC50 [1]: 17.7 µM
- IC50 [3]: 15.3 µM
- IC50 [4]: 7.19 µM
- IC50 [5]: 19 µM
- IC50 [6]: 6.33 µM
SMILES: O=C(NCCO)c1ccc(Nc2nccc(-c3ccc(F)cc3OCc3ccccc3)n2)cc1
- IC50 [2]: 23.3 µM

- IC50 [3]: 2.39 µM
- IC50 [4]: 2.87 µM
- IC50 [5]: 2.23 µM
- IC50 [6]: 3.36 µM
SMILES: O=C(c1ccc(Nc2nccc(-c3ccc(F)cc3OCc3ccccc3)n2)cc1)N1CCNCC1
- IC50 [2]: 5.71 µM
